This assay addresses tryptase. Description: In vitro tryptase inhibition assay. The assay is classed as biochemical, human. The following applies: tosyl-Gly-Pro-Lys-p-nitroanilide 0.5 mM; 1 h preincubation at room temperature; pH 8.2. On the procedure: The compounds to be assayed (approximately 1 mg) were dissolved in 200 μL dimethylsulfoxide (DMSO) and diluted 1:10 into buffer containing 50 millimolar (mM) Tris-HCl (pH 8.2), 100 mM sodium chloride, and 0.05% polyoxyethylenesorbitan monolaurate (Tween-20°, available from Sigma, St. Louis, Mo.). Seven additional threefold dilutions were made from the initial dilution into the same buffer supplemented with 10% DMSO. Aliquots (50 microliters, μL) from each of the eight dilutions in the series were transferred to individual wells in a 96-well U-bottom microtiter plate. […] The tryptase solution was prepared by placing 60 μg/mL of tryptase into solution with 10 mM MES (2-[N-Morpholino]ethane sulfonic acid) containing 2 mM CaCl2, 20% glycerol and 50 μg/mL heparin. The enzyme reaction was initiated with the addition of the synthetic tripeptide substrate, tosyl-Gly-Pro-Lys-p-nitroanilide (available from Sigma, 25 μL; 0.5 mM final concentration). […] Initial velocity measurements calculated from the progress curves by a kinetic analysis program (BatchKi; Petr Kuzmic, University of Wisconsin, Madison, Wis.) were used to determine apparent inhibition constants for each inhibitor.

For the molecule `NCc1cccc(CNC(=O)CCC(=O)NCc2cccc(CNC(=O)CCC(=O)NCc3cccc(CN)c3)c2)c1` [Example 11, N,N'-Bis(N-(3-aminomethylbenzyl)succinamido)-m-xylylene diamide], the Ki came to 127 nM. In other words, the sub-micromolar range.

Molecule `NCc1ccc(CNC(=O)CC(=O)NCc2ccc(CNC(=O)CC(=O)NCc3ccc(CN)cc3)cc2)cc1` [Example 9, N,N'-Bis(N-(4-aminomethylbenzl)-malonamido)-p-xylylene diamide] displayed a Ki of 150 nM.

In the case of `CN(Cc1ccc(CN(C)C(=O)c2ccc(CNC(=O)NC[C@H]3CC[C@H](CN)CC3)cc2)cc1)C(=O)c1ccc(CNC(=O)NC[C@H]2CC[C@H](CN)CC2)cc1` [Example 53], affinity was put at a Ki of 1200 nM.

`NCC1CCC(C(=O)NCCCC(=O)NCc2ccc(CNC(=O)CCCNC(=O)C3CCC(CN)CC3)cc2)CC1` (centres unmarked) [Example 49] yielded a Ki of 366 nM.

`C[C@H](NC(=O)OCc1ccc(COC(=O)N[C@@H](C)C(=O)NCc2ccc(CN)cc2)cc1)C(=O)NCc1ccc(CN)cc1` [Example 13, Bis(p-xylylenediamine-L-alanine)-1,4-benzenedimethanol dicarbamate] showed an inhibition constant Ki of 31 nM. Against the preceding molecule, the Ki is about 12-fold lower.

In turn, `N=C(N)Nc1ccc(CNC(=O)NCC(=O)NCc2ccc(CNC(=O)CNC(=O)NCc3ccc(NC(=N)N)cc3)cc2)cc1` [Example 48] returned a Ki of 700 nM.

On to `C[C@@H](NC(=O)OCc1ccc(COC(=O)N[C@H](C)C(=O)NCc2ccc(NC(=N)N)cc2)cc1)C(=O)NCc1ccc(NC(=N)N)cc1` [Example 6], for which the Ki was 364 nM.

For the molecule `N=C(N)Nc1ccc(CNC(=O)CNC(=O)NCc2ccc(CNC(=O)NCC(=O)NCc3ccc(NC(=N)N)cc3)cc2)cc1` [Example 46, 4-(Guanidinobenzylamido)glycine-1,4-xylylene diurea], the Ki was found to be 10 nM.

With `NCC1CCC(CNC(=O)CNC(=O)OCc2ccc(COC(=O)NCC(=O)NCC3CCC(CN)CC3)cc2)CC1` (centres unmarked) [Example 31, Bis(1,4-cyclohexyldimethylamineglycine)-1,4-benzenedimethanol dicarbamate], the affinity, expressed as Ki, was 12 nM.

Take `CN(Cc1ccc(CN(C)C(=O)CCC(=O)NCC2CCC(CN)CC2)cc1)C(=O)CCC(=O)NCC1CCC(CN)CC1` (centres unmarked) [Example 25, N,N'-Bis(methyl)-bis(N-(4-aminomethylcyclohexylmethyl)succinamido)-p-xylylene diamide]: the affinity corresponds to a Ki of 118 nM.

As to `NCc1ccc(CNC(=O)CCCC(=O)NCc2ccc(CNC(=O)CCCC(=O)NCc3ccc(CN)cc3)cc2)cc1` [Example 10], the affinity corresponds to a Ki of 8.8 nM.

With `NCc1cccc(CNC(=O)CNC(=O)OCc2ccc(COC(=O)NCC(=O)NCc3cccc(CN)c3)cc2)c1` [Example 44, Bis((3-aminomethylbenzylamido)glycine)-1,4-benzenedimethanol dicarbamate], affinity was put at a Ki of 55 nM.

Take `NCc1ccc(C(=O)NCCNC(=O)OCc2ccc(COC(=O)NCCNC(=O)c3ccc(CN)cc3)cc2)cc1` [Example 16, N,N'-Bis(4-aminomethylbenzamidoethylene)-1,4-benzenedimethanol dicarbamate]: affinity was put at a Ki of 396 nM. This Ki lies about 7.2-fold higher than the previous one.

In turn, `NC[C@H]1CC[C@H](C(=O)NCCCNC(=O)OCc2ccc(COC(=O)NCCCNC(=O)[C@H]3CC[C@H](CN)CC3)cc2)CC1` [Example 22, N,N'-Bis(trans-4-aminomethylcyclohexyl-1-amido-propylene)-1,4-benzenedimethanol dicarbamate] gave a Ki of 918 nM. Against the preceding molecule, the Ki is about 2.3-fold higher.

As for “Bis((R,S)-2-(2-(4-guanidinobenzylamino)-2,3-dehydro-6-piperidone)-1,4-benzenedimethanol dicarbmate [Example 41]”, affinity was put at a Ki of 611 nM.

Consider `N=C(N)Nc1ccc(CNC(=O)CCCC(=O)NCc2ccc(CNC(=O)CCCC(=O)NCc3ccc(NC(=N)N)cc3)cc2)cc1` [Example 38], for which the Ki stood at 100 nM. This Ki is about 6.1-fold lower than that of the molecule before.

`N=C(N)Nc1ccc(CNC(=O)CCC(=O)NCc2ccc(CNC(=O)CCC(=O)NCc3ccc(NC(=N)N)cc3)cc2)cc1` [Example 37] showed an inhibition constant (Ki) of 40 nM.

Consider `CC1(C)O[C@@H](C(=O)NCc2ccc(CN)cc2)[C@H](C(=O)NCc2ccc(CNC(=O)[C@@H]3OC(C)(C)O[C@H]3C(=O)NCc3ccc(CN)cc3)cc2)O1` [Example 28, N,N'-Bis(N-(4-aminomethylbenzyl)-dimethyl-2,3-isopropylidenetartaramido)-p-xylylene diamide], for which the affinity, expressed as Ki, was 643 nM.

On to `NCc1ccc(CNC(=O)NCC(=O)NCCc2ccc(NC(=O)CNC(=O)NCc3ccc(CN)cc3)cc2)cc1` [Example 50, Bis(N-(4-aminomethylbenzyl)glycylurea)-1,4-phenethylenediamide], for which the affinity corresponds to a Ki of 43 nM.

`NCC1CCCC(CNC(=O)CCC(=O)NCc2ccc(CNC(=O)CCC(=O)NCC3CCCC(CN)C3)cc2)C1` (centres unmarked) [Example 29, N,N'-Bis(N-(3-aminomethylcyclohexylmethyl)-succinamido)-p-xylylene diamide] registered a Ki of 1100 nM.

In turn, `N=C(N)Nc1ccc(CNC(=O)CC(=O)NCc2ccc(CNC(=O)CC(=O)NCc3ccc(NC(=N)N)cc3)cc2)cc1` [Example 36, N,N'-Bis(N-(4-Guanidylbenzylamine)-malonamido)-p-xylylene diamide] gave a Ki of 682 nM.

Regarding `N=C(N)Nc1ccc(CNC(=O)CCNC(=O)OCc2ccc(COC(=O)NCCC(=O)NCc3ccc(NC(=N)N)cc3)cc2)cc1` [Example 3], the inhibition constant (Ki) came out at 9 nM.

Regarding `NCc1ccc(NC(=O)CNC(=O)OCc2ccc(COC(=O)NCC(=O)Nc3ccc(CN)cc3)cc2)cc1` [Example 42, Bis((4-aminomethylanilido)glycine)-1,4-benzenedimethanol dicarbamate], the Ki was 783 nM.

`CN(Cc1ccc(CN)cc1)C(=O)CCC(=O)NCc1ccc(CNC(=O)CCC(=O)N(C)Cc2ccc(CN)cc2)cc1` [Example 30, N,N,-Bis(N-methyl-N-(4-aminomethylbenzyl)-succinamido)-p-xylylene diamide]: the affinity corresponds to a Ki of 2300 nM.

The molecule `NCc1ccc(CNC(=O)CCC(=O)Nc2ccc(NC(=O)CCC(=O)NCc3ccc(CN)cc3)cc2)cc1` [Example 39, N,N'-Bis((N-(4-aminomethylbenzyl)succinamido))-p-phenethylenediamide] yielded a Ki of 6 nM.

As for `N=C(N)Nc1ccc(CNC(=O)[C@H](Cc2ccccc2)NC(=O)OCc2ccc(COC(=O)N[C@@H](Cc3ccccc3)C(=O)NCc3ccc(NC(=N)N)cc3)cc2)cc1` [Example 7], the Ki came to 227 nM.

In turn, `NCc1ccc(CNC(=O)CNC(=O)OCc2ccc(COC(=O)NCC(=O)NCc3ccc(CN)cc3)cc2)cc1` [Example 1, Bis(p-xylylenediamineglycine)-1,4-benzenedimethanol dicarbamate] had a Ki of 0.56 nM. Against the preceding molecule, the Ki is about 410-fold lower.

`NCc1ccc(CNC(=O)NCC(=O)NCc2ccc(CNC(=O)CNC(=O)NCc3ccc(CN)cc3)cc2)cc1` [Example 47, Bis(N-(4-aminomethylbenzyl)glycylurea)-p-xylylene diamide]: affinity was put at a Ki of 62 nM. Against the preceding molecule, the Ki is about 110-fold higher.

Molecule `NCc1ccc(C(=O)NCCCNC(=O)OCc2ccc(COC(=O)NCCCNC(=O)c3ccc(CN)cc3)cc2)cc1` [Example 19, N,N'-Bis(4-aminomethylbenzamidopropylene)-1,4-benzenedimethanol dicarbamate] displayed a Ki of 5 nM. Against the preceding molecule, the Ki is about 12-fold lower.

`CN(CCCC(=O)NCc1ccc(CN)cc1)C(=O)c1ccc(C(=O)N(C)CCCC(=O)NCc2ccc(CN)cc2)cc1` [Example 20, N,N'-Bis(N-[4-aminomethylbenzyl)butyramido)-N,N'-bis(methyl)terephthalamide] came in with a Ki of 107 nM.

`CN(Cc1ccc(CN(C)C(=O)CCCC(=O)NCC2CCC(CN)CC2)cc1)C(=O)CCCC(=O)NCC1CCC(CN)CC1` (centres unmarked) [Example 27, N,N'-Bis(methyl)-bis(N-(4-aminomethylcyclohexylmethyl)-glutaramido)-p-xylylene didmine] came in with a Ki of 138 nM.

`NCC1CCC(CNC(=O)CCC(=O)NCc2ccc(CNC(=O)CCC(=O)NCC3CCC(CN)CC3)cc2)CC1` (centres unmarked) [Example 26, N,N'-Bis(N-(4-aminomethylcyclohexylmethyl)-succinamido)-p-xylylene diamide]: the Ki was found to be 123 nM.

In turn, `C[C@H](NC(=O)OCc1ccc(COC(=O)N[C@@H](C)C(=O)NCc2ccc(NC(=N)N)cc2)cc1)C(=O)NCc1ccc(NC(=N)N)cc1` [Example 5, Bis((4-guanidylbenzyl)-L-alanineamide-N^α -carbonyl)-1,4-dimethanolbenzene] registered a Ki of 289 nM.

In turn, `NCc1ccc(C(=O)NCCCCNC(=O)c2ccc(C(=O)NCCCCNC(=O)c3ccc(CN)cc3)cc2)cc1` [Example 34, N,N'-Bis[4-(aminomethylbenzamido)butyl]-terephthalyldiamide] displayed a Ki of 222 nM.

The molecule `CN(Cc1ccc(CN(C)C(=O)CNC(=O)NC[C@H]2CC[C@H](CN)CC2)cc1)C(=O)CNC(=O)NC[C@H]1CC[C@H](CN)CC1` [Example 51, N,N'-Bis(methyl)-bis(glycine-trans-1,4-cyclohexylbis(methylamine)urea)-p-xylylene diamide] gave an inhibitory constant (Ki) of 130 nM.

Turning to `NCc1ccc(CNC(=O)CCC(=O)NCc2ccc(CNC(=O)CCC(=O)NCc3cccc(CN)c3)cc2)cc1` [Example 35, N-(3-Aminomethylbenzylsuccinamido)-N'-(4-aminomethyl-benzylsuccinamido)-p-xylylene diamide], the Ki came to 19 nM.

Molecule `CN(Cc1ccc(CN)cc1)C(=O)CNC(=O)OCc1ccc(COC(=O)NCC(=O)N(C)Cc2ccc(CN)cc2)cc1` [Example 32] registered a Ki of 874 nM. This Ki lies about 46-fold higher than the previous one.

Take `NC[C@H]1CC[C@H](CNC(=O)CNC(=O)OCc2ccc(COC(=O)NCC(=O)NC[C@H]3CC[C@H](CN)CC3)cc2)CC1` [Example 45, Bis(trans-1,4-cyclohexyldimethylamine-glycine)-1,4-benzenedimethanol dicarbamate]: the Ki was determined as 10 nM.
